For the assay, the target named is PDE10 (Mus musculus, UniProt Q8CA95). In words: PDE10 enzyme inhibition (IMAP TR-FRET assay). In kind it is biochemical. As to conditions: Table 8A. On the procedure:
MPDE10A7 Enzyme Activity and Inhibition
Enzyme Activity. An IMAP TR-FRET assay was used to analyze the enzyme activity (Molecular Devices Corp., Sunnyvale Calif.). 5 μL, of serial diluted PDE10A (BPS Bioscience, San Diego, Calif.) or tissue homogenate was incubated with equal volumes of diluted fluorescein labeled cAMP or cGMP for 60 min in 384-well polystyrene assay plates (Corning, Corning, N.Y.) at room temperature. After incubation, the reaction was stopped by adding 60 μL, of diluted binding reagents and was incubated for 3 hours to overnight at room temperature. The plates were read on an Envision (Perkin Elmer, Waltham, Mass.) for time resolved fluorescence resonance energy transfer. The data were analyzed with GraphPad Prism (La Jolla, Calif.).
Enzyme Inhibition. To check the inhibition profile, 5 μL of serial diluted compounds were incubated with 5 μL of diluted PDE10 enzyme (BPS Bioscience, San Diego, Calif.) or tissue homogenate in a 384-well polystyrene assay plate (Corning, Corning, N.Y.) for 30 min at room temperature. […] The reaction was stopped by adding 60 μL of diluted binding reagents and plates were read on an Envision (Perkin Elmer, Waltham, Mass.) for time resolved fluorescence resonance energy transfer. The data were analyzed with GraphPad Prism (La Jolla, Calif.).

PDE10, sequence (Q8CA95 whole entry, looked up): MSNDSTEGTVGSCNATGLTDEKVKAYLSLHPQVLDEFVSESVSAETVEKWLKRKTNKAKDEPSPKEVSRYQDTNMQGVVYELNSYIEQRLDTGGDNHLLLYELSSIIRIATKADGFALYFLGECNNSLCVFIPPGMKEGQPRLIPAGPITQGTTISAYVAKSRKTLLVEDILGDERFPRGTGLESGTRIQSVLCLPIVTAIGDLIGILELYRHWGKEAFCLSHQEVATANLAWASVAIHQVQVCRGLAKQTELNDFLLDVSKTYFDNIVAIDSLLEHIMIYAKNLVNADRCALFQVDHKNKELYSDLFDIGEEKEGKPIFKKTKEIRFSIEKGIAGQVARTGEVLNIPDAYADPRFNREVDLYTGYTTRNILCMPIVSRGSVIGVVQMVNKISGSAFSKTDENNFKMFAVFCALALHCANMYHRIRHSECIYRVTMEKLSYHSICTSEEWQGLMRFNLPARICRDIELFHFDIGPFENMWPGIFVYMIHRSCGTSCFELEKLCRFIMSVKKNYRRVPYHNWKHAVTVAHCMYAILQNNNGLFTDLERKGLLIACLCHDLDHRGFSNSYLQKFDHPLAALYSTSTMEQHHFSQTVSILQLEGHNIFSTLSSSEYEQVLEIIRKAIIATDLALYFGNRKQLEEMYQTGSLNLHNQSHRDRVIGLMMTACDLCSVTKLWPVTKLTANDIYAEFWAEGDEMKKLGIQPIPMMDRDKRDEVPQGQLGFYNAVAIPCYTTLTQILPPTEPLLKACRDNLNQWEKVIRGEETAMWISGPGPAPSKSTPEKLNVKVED

Turning to “1-(4-(3-((1-(quinolin-2-yl)azetidin-3-yl)oxy)pyrazin-2-yl)phenyl)ethanone [Example 10.26]”, half-maximal inhibition (IC50) required 0.0244 µM.

The values are drawn from patent publication US8497265B2, “Heteroaryloxyheterocyclyl compounds as PDE10 inhibitors” (Amgen Inc., priority 2010, dated 2013).
